Measurements taken from PMC8327158, “PEGylated AdipoRon derivatives improve glucose and lipid metabolism under insulinopenic and high-fat diet conditions” (Journal of Lipid Research, 2021).

System: HFD-fed wild-type mice
Assay: Sphingolipid levels in tissues and serum of HFD-fed mice by mass spectrometry
Format: in vivo, mouse
Conditions: average ± SD
Description: Six-week-old wild-type male mice were fed HFD for 4 weeks or 7 months In total, 5 mg/Kg of PBS, Adiporon, AdipoRonPEG5, AdipoRonPEG6HTL were injected twice a day for 5 days. After 5 days of treatment, systemic test is performed, and serum (Before and after treatment), subcutaneous, epididymal, liver, heart samples were harvested for qPCR and sphingolipid analysis.
Flash-frozen tissue samples (~40 mg) in a borosilicate glass tube were quenched with 2.0 ml of organic extraction solvent (isopropanol: ethyl acetate, 15:85; v:v) and homogenized with a mechanical tissue disruptor. Immediately afterward, 20 μl of organic internal standard solution was added (Ceramide/Sphingoid Internal Standard Mixture II diluted 1:10 in ethanol). The mixture was vortexed for 20 s and sonicated in ultrasonic bath for 40 min at 40°C. The organic extract was allowed to reach room temperature, and 1.5 ml of HPLC water was added and a two-phase liquid-liquid extraction was performed. The upper phase was transferred to a new clean tube, and the lower aqueous phase containing the protein pellet was re-extracted with additional 2.0 ml of organic extraction solvent. The organic phases were combined and dried under nitrogen stream at 40°C. Dried extracts were stored at –80°C until analysis. For analysis of ceramides and sphingoid base species, the dried residues were reconstituted in 200 μl of methanol. Sphingomyelins required a sample dilution of 1:50 in methanol prior to analysis. Serum sphingolipids were extracted using a similar methodology requiring 25 μl of serum.
Liver, subcutaneous adipose tissue, pancreas, pancreatic islets were initially homogenized in 500 μl of cold PBS using an ultrasonic probe disruptor and keeping the sample on ice during sonication. In total, 50 μl of aqueous homogenate was aliquoted for protein determination. In total, 400 μl of the lysate was immediately quenched in 2.0 ml of organic extraction solvent.
In total, 5 μl of reconstituted samples was injected into an LC/MS/MS system for the analysis of ceramides and sphingoid bases, and 1 μl injection was required for the analysis of sphingomyelins. The system consisted of a Shimadzu LCMS-8050 triple-quadrupole mass spectrometer with the dual ion source operating in electrospray positive ionization mode. The mass spectrometer is coupled to a Shimadzu Nexera X2 UHPLC system equipped with three solvent delivery modules LC-30AD, three degassing units DGU-20A5R, an autosampler SIL-30ACMP, and a column oven CTO-20AC operating at 40°C (Shimadzu Scientific Instruments, Columbia, MD). Six sphingoid bases (d18:1 sphingosine, d18:1 sphingosine-1-phosphate, d18:1 deoxysphingosine, d18:0 sphinganine, d18:0 sphinganine-1-phosphate, d18:0 deoxysphinganine) and […] ceramide species and their metabolites (C16:0, C16:0 dihydroceramide, C16:0 glucosylceramide, C16:0 lactosylceramide, C16:0 sphingomyelin, C18:0, C18:0 dihydroceramide, C18:0 glucosylceramide, C18:0 sphingomyelin, C18:1, C20:0, C22:0, C22:0 glucosylceramide, C24:0, C24:0 dihydroceramide, C24:0 lactosylceramide, C24:0 sphingomyelin, C24:1, C24:1 dihydroceramide, C24:1 glucosylceramide, C24:1 sphingomyelin). Quantitative analysis of sphingolipids was achieved using selective reaction monitoring scan mode. Lipid separation was achieved by reverse phase LC on a 2.1 (i.d.) × 150 mm Ascentis Express C8, 2.7 micron (Supelco, Bellefonte, PA) column under gradient elution, using three different mobile phases: eluent A consisting of methanol/water/formic acid, 600/400/0.8, v/v/v with 5 mM ammonium formate, eluent B consisting of methanol/formic acid, 1,000/0.8, v/v with 5 mM ammonium formate, and eluent C consisting of CH3OH/CH2Cl2 350/650. The concentration of each metabolite was determined according to calibration curves using the peak-area ratio of analyte versus corresponding internal standard. Calibration curves were generated using serial dilutions of each target analyte.

[1] = scWAT, 5 mg/kg twice a day 5 days
[2] = serum at day 0 (before treatment)
[3] = serum at day 5, 5 mg/kg twice a day 5 days

**Q.** Which results are given for `O=C(COc1ccc(C(=O)c2ccccc2)cc1)NC1CCN(Cc2ccc(OCCOCCOCCOCCOCCO)cc2)CC1` [AdipoRonPEG5]?
**A.** Hexosyl 16:0 [1]: 1715352.2 ± 544724.48 pg/mg; Hexosyl 18:0 [1]: 988756.1 ± 523374.82 pg/mg; Hexosyl 20:0 [1]: 624871.6 ± 310850.97 pg/mg; Hexosyl 22:0 [1]: 5932684.2 ± 2348171.67 pg/mg; Hexosyl 24:0 [1]: 25627611.9 ± 14360009.57 pg/mg; Hexosyl 24:1 [1]: 13838465.2 ± 7503242.47 pg/mg; Lactosyl 16:0 [1]: 44866.5 ± 53044.09 pg/mg; Lactosyl 18:0 [1]: 0.0 ± 0.0 pg/mg; Lactosyl 22:0 [1]: 41846.1 ± 19236.41 pg/mg; Lactosyl 24:1 [1]: 71016.8 ± 18649.91 pg/mg; Lactosyl C24:0 [1]: 41489.9 ± 21166.47 pg/mg; Sphingaine1P [1]: 40997.6 ± 18111.26 pg/mg; Sphinganine [1]: 35831.5 ± 25048.56 pg/mg; Sphingosine [1]: 65862.8 ± 45362.44 pg/mg; Sphingosine1P [1]: 45575.1 ± 20925.35 pg/mg; dCer 16:0 [1]: 12585.7 ± 3750.43 pg/mg; dCer 18:0 [1]: 16110.9 ± 4383.33 pg/mg; dCer 20:0 [1]: 82646.0 ± 51960.31 pg/mg; dCer 22:0 [1]: 65558.1 ± 8753.52 pg/mg; dCer 24:0 [1]: 87756.9 ± 10704.97 pg/mg; dCer 24:1 [1]: 103545.6 ± 21754.88 pg/mg; Cer 14:0 [2]: 9547.7 ± 2338.7 pg/mg; Cer 16:0 [2]: 29166.2 ± 4917.61 pg/mg; Cer 18:0 [2]: 8552.2 ± 1447.69 pg/mg; Cer 18:1 [2]: 0 pg/mg; Cer 20:0 [2]: 161041.9 ± 19909.93 pg/mg; Cer 22:0 [2]: 2248954.3 ± 477468.89 pg/mg; Cer 24:0 [2]: 1497571.4 ± 240898.06 pg/mg; Cer 24:1 [2]: 1109542.1 ± 131449.16 pg/mg; Cer 26:0 [2]: 11416.3 ± 5402.24 pg/mg; Cer 26:1 [2]: 0 pg/mg; DeoxySphinganie [2]: 0.0 ± 0.0 pg/mg; Deoxysphingosine [2]: 0.0 ± 0.0 pg/mg; Hexosyl 14:0 [2]: 2960.2 ± 1473.95 pg/mg; Hexosyl 16:0 [2]: 3186431.1 ± 124319.92 pg/mg; Hexosyl 18:0 [2]: 50804.8 ± 12885.62 pg/mg; Hexosyl 20:0 [2]: 212177.0 ± 30736.45 pg/mg; Hexosyl 22:0 [2]: 12426084.7 ± 1134587.25 pg/mg; Hexosyl 24:0 [2]: 1547284.6 ± 152581.98 pg/mg; Hexosyl 24:1 [2]: 4176146.7 ± 370105.27 pg/mg; Lactosyl 16:0 [2]: 97139.2 ± 3984.55 pg/mg; Lactosyl 18:0 [2]: 0.0 ± 0.0 pg/mg; Lactosyl 22:0 [2]: 67539.8 ± 8954.59 pg/mg; Lactosyl 24:1 [2]: 91085.1 ± 17618.54 pg/mg; Lactosyl C24:0 [2]: 106966.9 ± 12842.2 pg/mg; Sphingaine1P [2]: 236098.7 ± 23069.11 pg/mg; Sphinganine [2]: 40000.3 ± 8021.4 pg/mg; Sphingosine [2]: 34674.5 ± 9280.02 pg/mg; Sphingosine1P [2]: 626634.8 ± 40618.85 pg/mg; dCer 16:0 [2]: 19797.0 ± 3523.66 pg/mg; dCer 18:0 [2]: 11474.0 ± 1631.86 pg/mg; dCer 20:0 [2]: 4088.3 ± 831.07 pg/mg; dCer 22:0 [2]: 358570.9 ± 58282.32 pg/mg; dCer 24:0 [2]: 224332.4 ± 35925.97 pg/mg; dCer 24:1 [2]: 127711.1 ± 26772.71 pg/mg; Cer 14:0 [3]: 9929.6 ± 3137.7 pg/mg; Cer 16:0 [3]: 15778.4 ± 1918.13 pg/mg; Cer 18:0 [3]: 13708.7 ± 1433.97 pg/mg; Cer 18:1 [3]: 0 pg/mg; Cer 20:0 [3]: 132529.6 ± 32152.61 pg/mg; Cer 22:0 [3]: 1388023.2 ± 196403.0 pg/mg; Cer 24:0 [3]: 1824217.1 ± 192203.29 pg/mg; Cer 24:1 [3]: 1024425.3 ± 215659.12 pg/mg; Cer 26:0 [3]: 16852.6 ± 6836.06 pg/mg; Cer 26:1 [3]: 0 pg/mg; DeoxySphinganie [3]: 0.0 ± 0.0 pg/mg; Deoxysphingosine [3]: 0.0 ± 0.0 pg/mg; Hexosyl 14:0 [3]: 2152.8 ± 1534.14 pg/mg; Hexosyl 16:0 [3]: 4458327.8 ± 279958.81 pg/mg; Hexosyl 18:0 [3]: 102580.4 ± 20477.28 pg/mg; Hexosyl 20:0 [3]: 312105.6 ± 82139.38 pg/mg; Hexosyl 22:0 [3]: 7780658.1 ± 1388198.99 pg/mg; Hexosyl 24:0 [3]: 1624021.9 ± 177684.63 pg/mg; Hexosyl 24:1 [3]: 3454314.7 ± 273336.65 pg/mg; Lactosyl 16:0 [3]: 90624.9 ± 13005.26 pg/mg; Lactosyl 18:0 [3]: 0.0 ± 0.0 pg/mg; Lactosyl 22:0 [3]: 65007.0 ± 14500.42 pg/mg; Lactosyl 24:1 [3]: 157880.8 ± 14580.32 pg/mg; Lactosyl C24:0 [3]: 128620.1 ± 18235.69 pg/mg; Sphingaine1P [3]: 512041.7 ± 138152.22 pg/mg; Sphinganine [3]: 15276.5 ± 1962.03 pg/mg; Sphingosine [3]: 21363.8 ± 828.59 pg/mg; Sphingosine1P [3]: 1121550.6 ± 208889.89 pg/mg; dCer 16:0 [3]: 3599.4 ± 848.4 pg/mg; dCer 18:0 [3]: 4287.0 ± 935.1 pg/mg; dCer 20:0 [3]: 2230.0 ± 831.07 pg/mg; dCer 22:0 [3]: 88406.3 ± 22461.25 pg/mg; dCer 24:0 [3]: 67386.7 ± 20818.51 pg/mg; dCer 24:1 [3]: 33950.3 ± 10616.3 pg/mg
